Source: PubChem BioAssay (NCI)
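Five compound concentrations were applied to cells in 96-well plates for 48 hours; endpoints were derived by simple linear interpolation of the resulting dose-response curve. The concentration for 50% growth inhibition is given as GI50. TGI: total growth inhibition.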

Columns and labels:
Experiment in all cases: NCI-60 cell line screen, 48 h
IGROV1 ovarian = test system: IGROV1 ovarian
786-0 renal = test system: 786-0 renal
HCT-116 colon = test system: HCT-116 colon
A549 NSCLC = test system: A549 NSCLC
KM12 colon = test system: KM12 colon
SK-MEL-28 melanoma = test system: SK-MEL-28 melanoma
COLO 205 colon = test system: COLO 205 colon
HCT-15 colon = test system: HCT-15 colon
RPMI-8226 leukemia = test system: RPMI-8226 leukemia
SK-MEL-5 melanoma = test system: SK-MEL-5 melanoma

Structure (SMILES) | TGI (IGROV1 ovarian) | TGI (786-0 renal) | TGI (HCT-116 colon) | TGI (A549 NSCLC) | TGI (KM12 colon) | TGI (SK-MEL-28 melanoma) | TGI (COLO 205 colon) | TGI (HCT-15 colon) | TGI (RPMI-8226 leukemia) | TGI (SK-MEL-5 melanoma) | GI50 (IGROV1 ovarian) | GI50 (786-0 renal) | GI50 (HCT-116 colon) | GI50 (A549 NSCLC) | GI50 (KM12 colon) | GI50 (SK-MEL-28 melanoma) | GI50 (COLO 205 colon) | GI50 (HCT-15 colon) | GI50 (RPMI-8226 leukemia) | GI50 (SK-MEL-5 melanoma)
Cc1c(C(=O)C/C(=N/NC(=O)C[n+]2ccccc2)C(=O)Nc2ccccc2)[n+](=O)c2ccccc2n1O | > 100 µM | > 100 µM | > 100 µM | > 100 µM | > 100 µM | > 100 µM | > 100 µM | > 100 µM | > 100 µM | > 100 µM | – | – | – | – | – | – | – | – | – | –
N#Cc1ccc(N2Cc3ccccc3OC3=C2C(=O)c2c(O)ccc(O)c2C3=O)cc1 | 1.36 µM | 0.381 µM | 0.35 µM | 9.76 µM | 6.1 µM | 0.62 µM | 0.268 µM | 0.618 µM | 1.31 µM | 2.26 µM | 497 nM | 0.145 µM | 102 nM | 2.49 µM | 1280 nM | 0.216 µM | 90.7 nM | 174 nM | 261 nM | 685 nM
O=C(CN1CCN(c2ccc(Cl)cc2)CC1)N1CCN(c2nnc(-c3ccc(Cl)cc3)c(-c3ccc(Cl)cc3)n2)CC1 | > 100 µM | > 100 µM | > 100 µM | > 100 µM | > 100 µM | > 100 µM | > 100 µM | > 100 µM | > 100 µM | > 100 µM | 35100 nM | 22 µM | 7840 nM | > 100 µM | 9450 nM | > 100 µM | 55300 nM | > 100000 nM | > 100000 nM | 14600 nM
C=CC[P+](c1ccccc1)(c1ccccc1)c1ccccc1 | > 100 µM | > 100 µM | > 100 µM | > 100 µM | > 100 µM | > 100 µM | 14.1 µM | > 100 µM | 32.2 µM | 5.27 µM | 9740 nM | 27.6 µM | 3480 nM | 4.54 µM | 1460 nM | 11.3 µM | 2660 nM | > 100000 nM | 675 nM | 1600 nM
CCN1C(=O)NC(=O)C(C)(N2C(=O)c3c(F)c(F)c(F)c(F)c3C2=O)C1=O (stereo not given) | 4.92 µM | 17.7 µM | 7.31 µM | 18.3 µM | 4.56 µM | 5.82 µM | 4.47 µM | 11.1 µM | 6.53 µM | 13.7 µM | 1900 nM | 4.49 µM | 2360 nM | 3.69 µM | 2110 nM | 2.25 µM | 2130 nM | 2860 nM | 1650 nM | 4920 nM
CC(C)(C)CC(C)(C)c1cc2c(O)c(c1)Cc1cc(C(C)(C)CC(C)(C)C)cc(c1O)Cc1cc(C(C)(C)CC(C)(C)C)cc(c1O)Cc1cc(C(C)(C)CC(C)(C)C)cc(c1O)Cc1cc(C(C)(C)CC(C)(C)C)cc(c1O)Cc1cc(C(C)(C)CC(C)(C)C)cc(c1O)C2 | > 100 µM | > 100 µM | > 100 µM | > 100 µM | > 100 µM | > 100 µM | > 100 µM | > 100 µM | > 100 µM | > 100 µM | – | – | – | – | – | – | – | – | – | –
CN(C)c1ncnc2c1nnn2C1OC(CO)C(O)C1O (stereo not given) | 15.9 µM | > 100 µM | > 100 µM | > 100 µM | 32.8 µM | > 85.2 µM | 0.769 µM | > 100 µM | 1.1 µM | 5.7 µM | 361 nM | 0.226 µM | 431 nM | 3.53 µM | 1070 nM | 0.404 µM | 194 nM | 229 nM | 160 nM | 737 nM
Cn1c(O)c(C(/C=C/c2ccccc2)=NCCN=C(/C=C/c2ccccc2)c2c(O)n(C)c(=O)n(C)c2=O)c(=O)n(C)c1=O | > 50 µM | > 50 µM | > 50 µM | > 50 µM | > 50 µM | 33.6 µM | > 50 µM | > 50 µM | 30.4 µM | 29.5 µM | 20700 nM | 21.3 µM | 13600 nM | 16.7 µM | 14100 nM | 10.2 µM | 17300 nM | 14500 nM | 9300 nM | 11400 nM
Cn1cc(C2=C(c3cccnc3)C(=O)NC2=O)c2ccccc21 | > 25 µM | > 25 µM | > 25 µM | > 25 µM | > 25 µM | > 25 µM | > 25 µM | > 25 µM | > 25 µM | > 22.5 µM | 24300 nM | > 25 µM | 15000 nM | > 25 µM | > 20600 nM | > 25 µM | > 18300 nM | > 25000 nM | > 25000 nM | > 12000 nM
C=CC(C)(O)/C=C/C=C(\C)C(CC1OC1(C)C)OC(=O)/C(C)=C\C (stereo not given) | > 100 µM | > 100 µM | > 100 µM | > 100 µM | > 100 µM | > 100 µM | > 100 µM | > 100 µM | > 100 µM | > 100 µM | – | – | – | – | – | – | – | – | – | –
COC1CCC(O)C(/C=C/[N+](=O)[O-])C1 (stereo not given) | 3.55 µM | 3.67 µM | 4.58 µM | 42.9 µM | 16.9 µM | 54.9 µM | 5.7 µM | 4.69 µM | 4.2 µM | 14.9 µM | – | – | – | – | – | – | – | – | – | –
CC(C)(C)c1[nH]cnc1/C=c1\[nH]c(=O)/c(=C/c2ccccc2)[nH]c1=O | 24.2 µM | 40.7 µM | 15.4 µM | 41.5 µM | 7.44 µM | 28.3 µM | 0.101 µM | 13.5 µM | 13.2 µM | 0.137 µM | 13.4 nM | < 0.01 µM | < 10 nM | 0.0181 µM | < 10 nM | 10.5 µM | 13 nM | < 10 nM | < 17.6 nM | < 13.3 nM
c1ccc(-c2cc(C3CO3)c3ccccc3n2)cc1 (stereo not given) | 36.6 µM | 29.3 µM | 30.2 µM | 40.4 µM | 33 µM | > 100 µM | 37.4 µM | 40.7 µM | 58.1 µM | 31.4 µM | – | – | – | – | – | – | – | – | – | –
Oc1c(CN2CCCC2)cc(COCc2ccc(Br)cc2)c2cccnc12 | 5.2 µM | 2.59 µM | 3.56 µM | 9.89 µM | 11.3 µM | 6.31 µM | 18.7 µM | 1.72 µM | 4.02 µM | 1.3 µM | 793 nM | 0.484 µM | 365 nM | 0.914 µM | 621 nM | 1.16 µM | 4620 nM | 47.5 nM | 1120 nM | 329 nM
